Measurements as given in ChEMBL document CHEMBL1136977, “Carbonic anhydrase activators. Activation of the membrane-associated isoform XV with amino acids and amines” (Bioorg Med Chem Lett, 2009).

Experiments:
[1] = biological target: Carbonic anhydrase 4 (Homo sapiens) (UniProt P22748); experiment: Activation of human recombinant carbonic anhydrase 4 lacking 20 amino terminal residues by stopped-flow CO2 hydrase method
[2] = biological target: T1, Carbonic anhydrase 15 (Mus musculus) (UniProt Q99N23); experiment: Activation of membrane associated mouse recombinant carbonic anhydrase 15 isoform by stopped-flow CO2 hydrase method
T1 sequence (whole entry): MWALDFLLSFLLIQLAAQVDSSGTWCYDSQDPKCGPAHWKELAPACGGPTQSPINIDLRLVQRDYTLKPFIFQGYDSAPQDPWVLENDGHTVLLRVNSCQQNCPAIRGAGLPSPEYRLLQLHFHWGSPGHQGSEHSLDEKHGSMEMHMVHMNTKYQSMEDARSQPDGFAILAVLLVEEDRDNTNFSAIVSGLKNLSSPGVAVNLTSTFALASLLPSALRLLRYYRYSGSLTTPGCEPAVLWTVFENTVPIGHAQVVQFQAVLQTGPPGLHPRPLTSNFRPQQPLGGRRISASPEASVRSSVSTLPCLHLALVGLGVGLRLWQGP

[3] = substrate: N[C@@H](Cc1c[nH]cn1)C(=O)O; experiment: (§1) Activity of membrane associated mouse recombinant carbonic anhydrase 15 isoform
[4] = substrate: N[C@H](Cc1c[nH]cn1)C(=O)O; experiment: as §1

Sequence of Carbonic anhydrase 4 (Homo sapiens) (P22748 whole entry, canonical isoform): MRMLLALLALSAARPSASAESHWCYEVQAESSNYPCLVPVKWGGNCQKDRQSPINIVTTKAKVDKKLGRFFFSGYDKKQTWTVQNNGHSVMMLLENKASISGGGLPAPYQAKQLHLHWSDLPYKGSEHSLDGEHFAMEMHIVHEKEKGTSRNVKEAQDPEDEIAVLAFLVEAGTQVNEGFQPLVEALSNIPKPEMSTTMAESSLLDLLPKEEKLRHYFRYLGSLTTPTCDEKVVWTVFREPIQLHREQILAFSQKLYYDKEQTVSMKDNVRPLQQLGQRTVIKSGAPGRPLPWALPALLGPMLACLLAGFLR

Molecule	KA [1] [µM]	KA [2] [µM]	kcat [3] [×10⁵ /s]	kcat [4] [×10⁵ /s]
NCCN1CCOCC1	1.3	9.3		
N[C@@H](Cc1c[nH]cn1)C(=O)O	7.3	32.1		
N[C@@H](Cc1ccc(O)cc1)C(=O)O	25.1	8.9		
NCCc1c[nH]cn1	25.3	18.5		
NCCc1c[nH]c2ccc(O)cc12	3.14	7.5		
NCc1ccccn1	5.19	11.6		
N[C@@H](Cc1c[nH]c2ccccc12)C(=O)O	37.1	13.5		
N[C@@H](Cc1ccc(O)c(O)c1)C(=O)O	15.3	6.5		
CNC[C@@H](O)c1ccc(O)c(O)c1	45	6.9		
NCCc1ccccn1	7.13	11.9		
N[C@H](Cc1c[nH]cn1)C(=O)O	12.3	14.1		
Nc1ccc(C[C@H](N)C(=O)O)cc1	0.079	16.3		
NCCN1CCNCC1	24.9	10.4		
NCCc1ccc(O)c(O)c1	30.9	7.1		
N[C@H](Cc1ccc(O)c(O)c1)C(=O)O	34.7	4		
N[C@H](Cc1c[nH]c2ccccc12)C(=O)O	39.6	8.7		
Carbonic anhydrase 15 (Mus musculus), Q99N23 (protein) MWALDFLLSFLLIQLAAQVDSSGTWCYDSQDPKCGPAHWKELAPACGGPTQSPINIDLRLVQRDYTLKPFIFQGYDSAPQDPWVLENDGHTVLLRVNSCQQNCPAIRGAGLPSPEYRLLQLHFHWGSPGHQGSEHSLDEKHGSMEMHMVHMNTKYQSMEDARSQPDGFAILAVLLVEEDRDNTNFSAIVSGLKNLSSPGVAVNLTSTFALASLLPSALRLLRYYRYSGSLTTPGCEPAVLWTVFENTVPIGHAQVVQFQAVLQTGPPGLHPRPLTSNFRPQQPLGGRRISASPEASVRSSVSTLPCLHLALVGLGVGLRLWQGP			8.5	15
